Source: patent publication US12655116B2, “Substituted isophthalic acid diamides” (Bayer Aktiengesellschaft, priority 2020, dated 2026)

How the values were obtained:
ECHCG [1] = assay: Pre-emergence herbicidal action against ECHCG; assay type: in vivo, Echinochloa crus-galli
Procedure, shortened: (§1)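 Seeds sown in sandy loam, soil-covered; compound sprayed on soil surface pre-emergence. Application: WP/EC, 600–800 l/ha, 0.2% wetting agent. Readout: visual % damage at 3 weeks.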

ALOMY [2] = assay: Pre-emergence herbicidal action against ALOMY; assay type: in vivo, Alopecurus myosuroides; conditions: 80 g/ha, pre-emergence, scored visually after 3 weeks vs untreated controls (100% = plants have died, 0% = like control plants)
Procedure, shortened: as §1

PHBPU [3] = assay: Post-emergence herbicidal action against PHBPU; assay type: in vivo, Pharbitis purpurea
Procedure, shortened: (§2)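 Percent herbicidal action is rated by eye about 3 weeks after treatment against untreated controls, where 100% means dead plants and 0% means like controls. Plants in sandy loam are sprayed on green parts at the one-leaf stage with aqueous WP or EC preparations at 600 to 800 l/ha plus 0.2% wetting agent.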

AMARE [4] = assay: Pre-emergence herbicidal action against AMARE; assay type: in vivo, Amaranthus retroflexus
Procedure, shortened: as §1

MATIN [5] = assay: Pre-emergence herbicidal action against MATIN; assay type: in vivo, Matricaria inodora
Procedure, shortened: as §1

ALOMY [6] = assay: Post-emergence herbicidal action against ALOMY; assay type: in vivo, Alopecurus myosuroides; conditions: visual assessment about 3 weeks after treatment vs untreated controls
Procedure, shortened: as §2

PHBPU [7] = assay: Pre-emergence herbicidal action against PHBPU; assay type: in vivo, Pharbitis purpurea
Procedure, shortened: as §1

VIOTR [8] = assay: Pre-emergence herbicidal action against VIOTR; assay type: in vivo, Viola tricolor
Procedure, shortened: as §1

AVEFA [9] = assay: Post-emergence herbicidal action against AVEFA; assay type: in vivo, Avena fatua; conditions: 20 g/ha, visual assessment about 3 weeks after treatment, 100% = plants have died, 0% = like control plants
Procedure, shortened: as §2

POLCO = assay: Pre-emergence herbicidal action against POLCO; assay type: in vivo, Polygonum convolvulus; conditions: dosage 80 g/ha
Procedure, shortened: as §1

ECHCG [10] = assay: Post-emergence herbicidal action against ECHCG; assay type: in vivo, Echinochloa crus-galli
Procedure, shortened: as §2

ABUTH [11] = assay: Post-emergence herbicidal action against ABUTH; assay type: in vivo, Abutilon theophrasti; conditions: visual assessment about 3 weeks after treatment vs untreated controls
Procedure, shortened: as §2

VIOTR [12] = assay: Post-emergence herbicidal action against VIOTR; assay type: in vivo, Viola tricolor
Procedure, shortened: as §2

VERPE [13] = assay: Pre-emergence herbicidal action against VERPE; assay type: in vivo, Veronica persica
Procedure, shortened: as §1

VERPE [14] = assay: Post-emergence herbicidal action against VERPE; assay type: in vivo, Veronica persica; conditions: 20 g/ha
Procedure, shortened: as §2

MATIN [15] = assay: Post-emergence herbicidal action against MATIN; assay type: in vivo, Matricaria inodora
Procedure, shortened: as §2

ABUTH [16] = assay: Pre-emergence herbicidal action against ABUTH; assay type: in vivo, Abutilon theophrasti; conditions: for Pre-emergence action against ABUTH (herbicidal activity): 80 g/ha, scored visually after 3 weeks vs untreated controls (100% = plants have died, 0% = like control plants); for Pre-emergence action against ABUTH (herbicidal activity in percent): dosage 20 g/ha, scored visually after 3 weeks vs untreated controls, 100% = plants have died, 0% = like control plants
Procedure, shortened: as §1

SETVI [17] = assay: Post-emergence herbicidal action against SETVI; assay type: in vivo, Setaria viridis
Procedure, shortened: as §2

AVEFA [18] = assay: Pre-emergence herbicidal action against AVEFA; assay type: in vivo, Avena fatua; conditions: for Pre-emergence action against AVEFA in %: 80 g/ha
Procedure, shortened: as §1

DIGSA [19] = assay: Post-emergence herbicidal action against DIGSA; assay type: in vivo, Digitaria sanguinalis; conditions: for Post-emergence action against DIGSA: 20 g/ha; for Post-emergence action against DIGSA in %: 5 g/ha
Procedure, shortened: as §2

AMARE [20] = assay: Post-emergence herbicidal action against AMARE; assay type: in vivo, Amaranthus retroflexus; conditions: 20 g/ha, visual assessment about 3 weeks after treatment, 100% = plants have died, 0% = like control plants
Procedure, shortened: as §2

SETVI [21] = assay: Pre-emergence herbicidal action against SETVI; assay type: in vivo, Setaria viridis
Procedure, shortened: as §1

DIGSA [22] = assay: Pre-emergence herbicidal action against DIGSA; assay type: in vivo, Digitaria sanguinalis
Procedure, shortened: as §1

STEME = assay: Post-emergence herbicidal action against STEME; assay type: in vivo, Stellaria media; conditions: 20 g/ha
Procedure: Seeds of monocotyledonous and dicotyledonous weed and crop plants are laid out in sandy loam soil in wood-fiber pots, covered with soil and cultivated in a greenhouse under good growth conditions. 2 to 3 weeks after sowing, the test plants are treated at the one-leaf stage. The compounds of the invention, formulated in the form of wettable powders (WP) or as emulsion concentrates (EC), are then sprayed onto the green parts of the plants in the form of an aqueous suspension or emulsion at a water application rate equivalent to 600 to 800 l/ha, with addition of 0.2% wetting agent. After the test plants have been left to stand in the greenhouse under optimal growth conditions for about 3 weeks, the action of the preparations is assessed visually in comparison to untreated controls (herbicidal action in percent (%): 100% activity=the plants have died, 0% activity=like control plants). […] The tables below illustrate, in an illustrative manner, the post-emergence herbicidal action of the compounds of the invention, the herbicidal activity being stated in percent.

[23] = 20 g/ha, scored visually after 3 weeks vs untreated controls, 100% = plants have died, 0% = like control plants
[24] = 80 g/ha, scored visually after 3 weeks vs untreated controls (100% = plants have died, 0% = like control plants)

SMILES	Pre-emergence action against ECHCG in % (ECHCG [1]; 80 g/ha) [%]	Pre-emergence action against ALOMY (herbicidal activity) (ALOMY [2]) [%]	Pre-emergence action against AMARE in % (AMARE [4]; [23]) [%]	Pre-emergence action against AMARE in % (AMARE [4]; [24]) [%]	Pre-emergence action against MATIN in % (MATIN [5]; dosage 20 g/ha) [%]	Pre-emergence action against MATIN in % (MATIN [5]; dosage 80 g/ha) [%]	Post-emergence action against ALOMY in % (ALOMY [6]; dosage 20 g/ha) [%]	Pre-emergence action against PHBPU in % (PHBPU [7]; dosage 80 g/ha) [%]	Pre-emergence action against VIOTR in % (VIOTR [8]; dosage 20 g/ha) [%]	Pre-emergence action against VIOTR in % (VIOTR [8]; dosage 80 g/ha) [%]	Post-emergence action at 20 g/ha against AVEFA in % (AVEFA [9]) [%]	Pre-emergence action against POLCO in % (POLCO) [%]	Post-emergence action against ECHCG in % (ECHCG [10]; dosage 20 g/ha) [%]	Post-emergence action against ABUTH in % (ABUTH [11]; dosage 20 g/ha) [%]	Post-emergence action against VIOTR in % (VIOTR [12]; 20 g/ha) [%]	Pre-emergence action against VERPE in % (VERPE [13]; dosage 80 g/ha) [%]	Pre-emergence action against ABUTH (herbicidal activity) (ABUTH [16]) [%]	Post-emergence action against SETVI in % (SETVI [17]; dosage 20 g/ha) [%]	Post-emergence action at 20 g/ha against AMARE in % (AMARE [20]) [%]	Pre-emergence action against SETVI in % (SETVI [21]; dosage 80 g/ha) [%]	also measured
CCNC(=O)c1c(C(F)F)ccc(C(=O)Nc2nnnn2CC)c1Br [Example 2-226]	100	90	100	100	90	100	90	100	100	100	80	80	90	90	100	100	80	100	100	100	Pre-emergence action against ECHCG in % (ECHCG [1]; 20 g/ha): 100%; Post-emergence action against PHBPU in % (PHBPU [3]; dosage 20 g/ha): 80%; Post-emergence action against VIOTR in % (VIOTR [12]; 5 g/ha): 90%; Post-emergence action against VERPE in % (VERPE [14]): 90%; Post-emergence action against MATIN in % (MATIN [15]; dosage 20 g/ha): 80%; Pre-emergence action against ABUTH (herbicidal activity in percent) (ABUTH [16]): 80%; Post-emergence action against SETVI in % (SETVI [17]; dosage 5 g/ha): 100%; Pre-emergence action against AVEFA in % (AVEFA [18]): 100%; Post-emergence action against DIGSA (DIGSA [19]): 80%; Pre-emergence action against SETVI in % (SETVI [21]; dosage 20 g/ha): 80%
CCn1nnnc1NC(=O)c1ccc(C(F)(F)F)c(C(=O)NC(C)C2CC2)c1C1CC1 (centres unmarked) [Example 2-292]	100	90	100	100	90	100	80	90	100	100	80	100	80	80	80	100	100	80	90	100	Pre-emergence action against PHBPU in % (PHBPU [7]; dosage 20 g/ha): 80%; Pre-emergence action against DIGSA in % (DIGSA [22]; dosage 20 g/ha): 100%; Pre-emergence action against DIGSA in % (DIGSA [22]; dosage 80 g/ha): 100%; Post-emergence action against ECHCG in % (ECHCG [10]; dosage 5 g/ha): 80%; Pre-emergence action against VERPE in % (VERPE [13]; dosage 20 g/ha): 90%; Post-emergence action against VERPE in % (VERPE [14]): 80%; Post-emergence action against MATIN in % (MATIN [15]; dosage 5 g/ha): 80%; Post-emergence action against MATIN in % (MATIN [15]; dosage 20 g/ha): 90%; Pre-emergence action against ABUTH (herbicidal activity in percent) (ABUTH [16]): 100%; Pre-emergence action against AVEFA in % (AVEFA [18]): 90%; Post-emergence action against DIGSA in % (DIGSA [19]): 90%; Post-emergence action against DIGSA (DIGSA [19]): 90%
CCNC(=O)c1c(C(F)(F)F)ccc(C(=O)Nc2nnnn2CC)c1OC [Example 2-57]	100	90	100	100	90	100	90	80	100	100	80	90	100	100	100	90	100	100	100	100	Pre-emergence action against ECHCG in % (ECHCG [1]; 20 g/ha): 90%; Post-emergence action against PHBPU in % (PHBPU [3]; dosage 5 g/ha): 80%; Post-emergence action against PHBPU in % (PHBPU [3]; dosage 20 g/ha): 90%; Pre-emergence action against DIGSA in % (DIGSA [22]; dosage 20 g/ha): 100%; Pre-emergence action against DIGSA in % (DIGSA [22]; dosage 80 g/ha): 100%; Post-emergence action against ECHCG in % (ECHCG [10]; dosage 5 g/ha): 100%; Post-emergence action against ABUTH in % (ABUTH [11]; dosage 5 g/ha): 90%; Post-emergence action against VIOTR in % (VIOTR [12]; 5 g/ha): 90%; Post-emergence action against VERPE in % (VERPE [14]): 90%; Post-emergence action against MATIN in % (MATIN [15]; dosage 5 g/ha): 80%; Post-emergence action against MATIN in % (MATIN [15]; dosage 20 g/ha): 90%; Pre-emergence action against ABUTH (herbicidal activity in percent) (ABUTH [16]): 100%; Post-emergence action against SETVI in % (SETVI [17]; dosage 5 g/ha): 100%; Pre-emergence action against AVEFA in % (AVEFA [18]): 90%; Post-emergence action against DIGSA in % (DIGSA [19]): 90%; Post-emergence action against DIGSA (DIGSA [19]): 100%; Pre-emergence action against SETVI in % (SETVI [21]; dosage 20 g/ha): 80%
CCn1nnnc1NC(=O)c1ccc(C(F)(F)F)c(C(=O)NCC(F)F)c1C1CC1 [Example 2-291]	90	80	100	100	90	100	80	90	100	100	90	80	80	80	90	90	100	90	90	100	Post-emergence action against PHBPU in % (PHBPU [3]; dosage 5 g/ha): 80%; Post-emergence action against PHBPU in % (PHBPU [3]; dosage 20 g/ha): 90%; Post-emergence action against ALOMY in % (ALOMY [6]; dosage 5 g/ha): 80%; Pre-emergence action against PHBPU in % (PHBPU [7]; dosage 20 g/ha): 80%; Pre-emergence action against DIGSA in % (DIGSA [22]; dosage 20 g/ha): 100%; Pre-emergence action against DIGSA in % (DIGSA [22]; dosage 80 g/ha): 100%; Post-emergence action against ECHCG in % (ECHCG [10]; dosage 5 g/ha): 80%; Post-emergence action against ABUTH in % (ABUTH [11]; dosage 5 g/ha): 80%; Post-emergence action against VIOTR in % (VIOTR [12]; 5 g/ha): 80%; Post-emergence action against VERPE in % (VERPE [14]): 80%; Post-emergence action against MATIN in % (MATIN [15]; dosage 5 g/ha): 80%; Post-emergence action against MATIN in % (MATIN [15]; dosage 20 g/ha): 90%; Pre-emergence action against ABUTH (herbicidal activity in percent) (ABUTH [16]): 100%; Pre-emergence action against AVEFA (AVEFA [18]; 20 g/ha, scored visually after 3 weeks, 100% = plants have died, 0% = like control plants): 80%; Pre-emergence action against AVEFA in % (AVEFA [18]): 80%; Post-emergence action against DIGSA in % (DIGSA [19]): 90%; Post-emergence action against DIGSA (DIGSA [19]): 100%
Cc1nnc(NC(=O)c2ccc(C(F)F)c(C(=O)NC3CC3)c2C)o1 [Example 6-33]	100		90	100	80	90				100			80	80			90	80	90	100	Post-emergence action against STEME in % (STEME): 80%; Pre-emergence action against DIGSA in % (DIGSA [22]; dosage 20 g/ha): 80%; Pre-emergence action against DIGSA in % (DIGSA [22]; dosage 80 g/ha): 100%; Post-emergence action against SETVI in % (SETVI [17]; dosage 5 g/ha): 80%
